Patent publication US20250288558A1, “THERAPEUTIC FOR SPINAL CORD INJURY TO INDUCE HYPOTHERMIA” (The Trustees of Indiana University, priority 2024, published 2025)
Where a name gives a salt, the structure may show the parent alone.

Test system: mice with moderate T9 contusive SCI
Text: Therefore, we compared the functional outcomes of Dex treated SCI mice with SCI only mice using multiple behavior tests post-trauma. C57 BL/6 wild type mice (female) at age of 8 weeks were randomly assigned into three different groups, including sham, SCI, and SCI+Dex. Then the moderate T9 contusive SCI was introduced in two injury groups using LISA injury model. Mice in sham and SCI only group were put on the heating pad to maintain their normal body temperature, while mice in Dex treated group were exposed in ambient room temperature of 24.5° C. for hypothermia during whole surgery and recovery process. One hour after injury, one dose of Dex (100 μg/kg) was IP administrated to rapidly induce early moderate to modest therapeutic hypothermia (30-32° C.). All mice body temperature were measured by rectal probe every 30 minutes to monitor the hypothermia after surgery till the mice fully waked up and back to normothermia. After SCI injury, at different time, multiple behavioral tests, were applied to examine functional outcomes and the potential neuroprotective effects of Dex treatment (FIG. 3A). The Basso Mouse Scale (BMS) was a reliable measurement that developed to examine the locomotion in spinal cord injured mice. It has been widely used in mouse functional evaluation and serves as an indicator of recovery. This test examines different locomotor categories such as paralysis, weight support, stepping, trunk stability, and so on. The scores ranged from 9 to 0 that represent normal movement to complete paralysis, respectively. Three days prior surgery, the BMS scores of all mice in different groups were measured. Only mice with 9 score were kept. The mice with score lower than 9 were replaced to make sure mice in different groups had same baseline of locomotion. After surgery, the BMS score was repeatedly measured at 3 days, 1 week, 2 weeks, 3 weeks, 4 weeks, 5 weeks, and 6 weeks (FIG. 3B).
Contusive spinal cord injury: Adult female C57BL/6 mice (8 weeks old, 18-22 g) were purchased from The Jackson Laboratory (Bar Harbor, ME). Depending on different injury model, mice were either randomly divided into three groups: sham, SCI+heating pad, and SCI+Dex for LISA injury model, or were randomly divided into four groups: sham, SCI+heating pad, SCI+Dex, and SCI+Conventional hypothermia for Infinite Horizons (IH) model. […] All animal care, handling, and surgery were performed in accordance with the Guide for the Care and Use of Laboratory Animals (National Research Council) and the Guidelines of the Institutional Animal Care and Use Committee of Indiana University School of Medicine. Spinal cord contusion was made at the thoracic (T9) vertebral level. After avertin anesthesia, animals will be placed on a thermometer-controlled heating pad for the duration of recovery (except Dex and conventional hypothermia treated group). For LISA injury model, C57/6J mice were anesthetized. A midline skin incision was made to expose the thoracolumbar spine, followed by the removal of the T9 spinous process and lamina to expose the dura mater. The displacement was set to be 0.5 mm. The T9 contusion injury was performed using a LISA impactor, where the injury level was determined using a laser sensor. After injury confirmation, the surgical area is sutured, the animal is hydrated and monitored for post-operative care, including analgesia and bladder expression. For IH model, a 1-inch skin incision was placed on the dorsal midline, musculature was retracted, and then the spinal column was visualized and placed into a stabilizer with two clamps retracting the spinous processes of the vertebrae directly surrounding the injury site. A laminectomy was performed to expose the dura.

For `Cc1cccc([C@H](C)c2cnc[nH]2)c1C` [Dex, dexmedetomidine hydrochloride], which “locomotion recovery (BMS) compared to none-treatment SCI group” value (FIG. 3B, female, n=10) is on record?
Its value is “better locomotion recovery”.

And the “improvement of locomotor function in BMS test” value (compared with about 25% for hypothermia alone (meta-analysis))?
The value was 70%.

And the “BMS score compared to SCI only group” value (day 3 post-injury, Dex 100 μg/kg IP one hour after injury)?
Its value is “did not show the significant difference”.

What about the “average BMS score” value (one week after surgery, Dex 100 μg/kg IP) of the same compound?
Its value is about 5.

What about the “increase of BMS score compared to SCI only group” value (week 6 (end of test)) of the same compound?
The value was “over 65%”.

What about the BMS score (week 6 (end of test), Dex 100 μg/kg IP) of the same compound?
Its BMS score is “about 7.8”.
